Data as given in patent publication US20130237478A1, “COMPOSITIONS AND METHODS FOR TREATMENT OF PERIPHERAL VASCULAR DISEASE” (TARIX PHARMACEUTICALS LTD., priority 2012, published 2013).

What was measured:
[1] = Body weight of mice in hind limb ischemia studies; type: in vivo, Balb/c mice; details: Example 1; 500 μg/kg SC daily; throughout the study (49 days)
Experimental: Body weight of animals was measured before the surgery and once weekly thereafter.
The model and procedures used for this example is the same as for those in Examples 1 and 2, unless otherwise specified.

[2] = system: Transient middle cerebral artery occlusion (tMCAO); test: Stepping test (forelimb akinesia) after tMCAO stroke; type: in vivo, rats
Experimental: (§1) For the purposes of this example, Transient middle cerebral artery occlusion (tMCAO) procedure Day is defined as “Day 1” in this study. On the day of surgery anesthesia were induced with 4% isoflurane in a mixture of 70% N2O and 30% O2 and maintained with 1.5-2% isoflurane.
The tMCAO procedures were performed according to the method described R. Schmid-Elsaesser et al. Briefly, the right CCA (Common Carotid Artery) was exposed through a midline neck incision and carefully dissected free from surrounding nerves and fascia—from its bifurcation to the base of the skull. The occipital artery branches of the ECA (External Carotid Artery) were then isolated, and these branches were dissected and coagulated. The ECA was dissected further distally and coagulated along with the terminal lingual and maxillary artery branches, which was then divided. The ICA (Internal Carotid Artery) was isolated and carefully separated from the adjacent vagus nerve, and the pterygopalatine artery was ligated close to its origin with a 5-0 nylon suture (SMI, Belgium). Next, a 4-0 silk suture was tied loosely around the mobilized ECA stump, and a 4 cm length of 4-0 monofilament nylon suture (the tip of the suture was blunted by using a flame, and the suture was coated with polylysine, prior to insertion) was inserted through the proximal ECA into the ICA and thence into the circle of Willis, effectively occluding the MCA. The surgical wound was closed and the animals were returned to their cages to recover from anesthesia. […]
Animals were tested for forelimb akinesia in a stepping test (ST). The animal was held with its hind limbs fixed with one hand and the forelimb not to be monitored with the other, while the unrestrained fore-paw touches the table. The number of adjusting steps are counted while the animal is moved sideways along the table surface (85 cm in approximately five seconds), in the forehand & backhand direction for both forelimbs. […]

[3] = system: Transient middle cerebral artery occlusion (tMCAO); test: Forelimb placement test after tMCAO stroke; type: in vivo, rats; details: 50 μg/kg by Alzet pump; particularly on Days 21 and 35
Experimental: as §1
(§2) The tMCAO procedures were performed according to the method described R. Schmid-Elsaesser et al. Briefly, the right CCA (Common Carotid Artery) was exposed through a midline neck incision and carefully dissected free from surrounding nerves and fascia—from its bifurcation to the base of the skull. The occipital artery branches of the ECA (External Carotid Artery) were then isolated, and these branches were dissected and coagulated. The ECA was dissected further distally and coagulated along with the terminal lingual and maxillary artery branches, which was then divided. The ICA (Internal Carotid Artery) was isolated and carefully separated from the adjacent vagus nerve, and the pterygopalatine artery was ligated close to its origin with a 5-0 nylon suture (SMI, Belgium). […]
For the forelimb-placing test, the rat was held close to a tabletop and the rat's ability to place the forelimb on the tabletop in response to whisker, visual, tactile, or proprioceptive stimulation was scored (0=normal, 12=maximally impaired). […]

[4] = system: Transient middle cerebral artery occlusion (tMCAO); test: Body swing test after tMCAO stroke; type: in vivo, rats; details: 50 μg/kg by Alzet pump
Experimental: as §1
The tMCAO procedures were performed according to the method described R. Schmid-Elsaesser et al. Briefly, the right CCA (Common Carotid Artery) was exposed through a midline neck incision and carefully dissected free from surrounding nerves and fascia—from its bifurcation to the base of the skull. The occipital artery branches of the ECA (External Carotid Artery) were then isolated, and these branches were dissected and coagulated. The ECA was dissected further distally and coagulated along with the terminal lingual and maxillary artery branches, which was then divided. The ICA (Internal Carotid Artery) was isolated and carefully separated from the adjacent vagus nerve, and the pterygopalatine artery was ligated close to its origin with a 5-0 nylon suture (SMI, Belgium). Next, a 4-0 silk suture was tied loosely around the mobilized ECA stump, and a 4 cm length of 4-0 monofilament nylon suture (the tip of the suture was blunted by using a flame, and the suture was coated with polylysine, prior to insertion) was inserted through the proximal ECA into the ICA and thence into the circle of Willis, effectively occluding the MCA. The surgical wound was closed and the animals were returned to their cages to recover from anesthesia. One hour and a half after occlusion rats were re-anesthetized, the monofilament was withdrawn to allow reperfusion, the surgical wound was closed and rats were returned to their cages.
Animals were subjected to a modified Modified Neurological Rating Scale (mNRS) at 24 hours post reperfusion. Only animals with an overall score of ≧10 were included in this study. Animals were allocated into the test groups, according to the mNRS results on day 2, in order to have similar distribution of rats performance between groups. Starting on day 2, 24 hours post-surgery, animals in groups 4, 5 and 7 were implanted subcutaneously with an osmotic Alzet pump and treated with either 500 μg/kg TXA127, 500 μg/kg PanCyte, or 50 μg/kg Linear PanCyte. Animals in groups 2, 3 and 6 received 500 μg/kg or 1,000 μg/kg TXA127 or 500 μg/kg PanCyte, administered subcutaneously via daily injection. Animals in group 1 were treated with a daily subcutaneous injection of a PBS (vehicle).
Each rat was held approximately one inch from the base of its tail. It was then elevated to an inch above a surface of a table. The rat was held in the vertical axis, defined as no more than 10° to either the left or the right side. A swing was recorded whenever the rat moves its head out of the vertical axis to either side. Before attempting another swing, the rat must return to the vertical position for the next swing to be counted. Twenty (20) total swings were counted. A normal rat typically has an equal number of swings to either side. Following focal ischemia, the rat tends to swing to the contralateral side (left side in this case). Body swing scores are expressed as a percentage of […] over total swings.

[5] = system: Transient middle cerebral artery occlusion (tMCAO); test: tMCAO stroke model, overall comparison of results; type: in vivo, rats; details: Linear PanCyte dose at least ten times lower than PanCyte
Text: Without wishing to be held to a particular theory, it is possible that angiotensin-(1-7) peptides or functional equivalents, analogs or derivatives, and/or angiotensin-(1-7) receptor agonists such as TXA127, PanCyte and Linear PanCyte act to stimulate blood flow and tissue repair through angiogenesis. Such a mode of action would be extremely beneficial in a critical limb ischemia scenario since these conditions have deprivation of blood supply as a major source of pathology.
as §1
as §2, with “divided.” for “divided. The ICA (Internal Carotid Artery) was isolated and carefully separated from the adjacent vagus nerve, and the pterygopalatine artery was ligated close to its origin with a 5-0 nylon suture (SMI, Belgium).”

CC[C@H](C)[C@H](NC(=O)[C@H](Cc1ccc(O)cc1)NC(=O)[C@@H](NC(=O)[C@H](CCCNC(=N)N)NC(=O)[C@@H](N)CC(=O)O)C(C)C)C(=O)N[C@@H](Cc1c[nH]cn1)C(=O)N1CCC[C@H]1C(=O)O [TXA127, Asp^1-Arg^2-Val^3-Tyr^4-Ile^5-His^6-Pro^7 (SEQ ID NO: 1)]
body weight vs vehicle [1]: no statistically significant differences

Asp^1-Arg^2-Val^3-Ser^4-Ile^5-His^6-Cys^7 (SEQ ID NO:5) (DRVSIHC) [Linear PanCyte]
stepping test results compared with TXA127 or PanCyte ([2]; 50 μg/kg by Alzet pump): substantially equivalent to ten times as much TXA127 or PanCyte
stepping test performance vs vehicle ([2]; all experimental conditions (Table 22), by Day 28 post-surgery): significantly improved the performance
forelimb placement performance compared with other groups [3]: best performance
body swing performance ([4]; by Day 21): showed improvement
body swing performance vs vehicle ([4]; by Day 28): significant improvement in performance
results in stroke model compared with PanCyte [5]: at least as impressive as PanCyte and in many cases even more impressive results
